Results reported in patent publication US9415049B2, “Heteroaryl compounds and uses thereof” (Celgene Avilomics Research, Inc., priority 2013, dated 2016).

Target: human recombinant full-length Btk enzyme (Homo sapiens, UniProt Q06187)
Assay: Covalent bonding assay, intact protein MALDI mass spectrometry
Format: binding
Set-up: The full-length recombinant human Btk protein; purchased Invitrogen Lot #619547Q (catalogue number not given)
Conditions: percentage of total protein covalently modified after one hour incubation, 10-fold excess of compound, room temperature
Description: The following example describes testing certain compounds to determine whether they covalently bind to BTK. The full-length recombinant human Btk protein (Lot #619547Q; 0.35 mg/mL) was obtained from Invitrogen (Carlsbad, Calif.). Btk protein was diluted 2:3 in phosphate-buffered saline and stock concentration (10 mM) of compound was diluted 1:115 in 50% DMSO.
For all compounds, 1 μL of diluted compound was added to 5 μL of diluted protein. These mixtures were then incubated for 60 minutes at a 10-fold excess of compound to protein under room temperature (˜24° C.) conditions.
At the end of the incubation, 5 μL aliquots of the samples were diluted with 15 μL of 0.2% TFA prior to micro C4 ZipTipping® directly onto the MALDI target plate using sinapinic acid as the desorption matrix (10 mg/mL in 0.2% TFA:Acetonitrile 50:50). Samples were immediately analyzed on an ABSciex 4800 MALDI TOF-TOF mass spectrometer.
For intact protein mass measurement, the mass spectrometer was set in linear mode using a pulsed extraction setting of 81,500. Bovine serum albumin (BSA; Sigma, St Louis, Mo.) was used as the standard to calibrate the instrument. These values correspond to the percentage of total protein covalently modified by the tested compound after one hour incubation.

Chain of human recombinant full-length Btk enzyme (Q06187 whole entry): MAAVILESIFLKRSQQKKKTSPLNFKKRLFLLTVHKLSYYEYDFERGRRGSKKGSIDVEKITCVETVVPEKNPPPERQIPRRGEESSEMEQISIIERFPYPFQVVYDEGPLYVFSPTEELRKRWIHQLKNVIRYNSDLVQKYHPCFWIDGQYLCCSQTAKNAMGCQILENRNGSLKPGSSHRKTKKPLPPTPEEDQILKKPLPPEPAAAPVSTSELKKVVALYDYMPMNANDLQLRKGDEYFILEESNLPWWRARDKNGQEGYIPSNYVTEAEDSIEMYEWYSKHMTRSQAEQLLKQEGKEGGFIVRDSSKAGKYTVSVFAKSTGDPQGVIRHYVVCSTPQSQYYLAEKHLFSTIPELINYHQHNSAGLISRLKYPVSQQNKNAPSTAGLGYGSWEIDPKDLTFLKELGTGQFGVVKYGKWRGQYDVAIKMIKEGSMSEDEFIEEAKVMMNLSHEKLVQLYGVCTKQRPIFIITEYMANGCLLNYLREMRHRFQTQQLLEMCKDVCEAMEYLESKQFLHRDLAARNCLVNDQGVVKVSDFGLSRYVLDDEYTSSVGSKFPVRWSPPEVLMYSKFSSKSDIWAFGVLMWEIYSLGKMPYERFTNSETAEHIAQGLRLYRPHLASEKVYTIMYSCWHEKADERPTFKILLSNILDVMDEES

| Structure (SMILES) | MS % modification |
| --- | --- |
| C=CC(=O)Nc1cccc(Nc2nc(Nc3ccc(O)cc3)ncc2F)c1 [Compound I-3, N-(3-((5-fluoro-2-((4-hydroxyphenyl)amino)pyrimidin-4-yl)amino)phenyl)acrylamide] | A (>70% modification) |
| C=CC(=O)Nc1cccc(Nc2nc(Nc3ccc(OCCO)cc3)ncc2F)c1 [Compound I-1, N-(3-((5-fluoro-2-((4-(2-hydroxyethoxy)phenyl)amino)pyrimidin-4-yl)amino)phenyl)acrylamide] | B (31-69% modification) |
